Patent US5157019A, “Serine protease inhibitors” (Monsanto Company, priority 1991, dated 1992)
Bridge positions count the residues as written; N and C are the ends. Ends that are not written are not given here.

Assays:
Format in all cases: biochemical
[1] = target: Thrombin (Homo sapiens, UniProt P00734); assay: Coagulation inhibition assay, thrombin (fibrinogen clotting end point); details: 40 μM peptide
Experimental: Inhibitory activity of subject peptides toward thrombin and Factor Xa were done in the following manner. Mix 100 μL Thrombin (3.125 units/ml, 1.125 μg/ml) in TAB with […] Peptide in TAB and incubate for 1 minute at 37° C. Add 50 μL Fibrinogen (2 mg/ml)and measure clotting end point (in seconds) in a Fibrometer (BBL) TAB=Thrombin Assay Buffer: 0.15M NaCl, 6.6 gm/L PEG-6000, 0.01M Imidazole, 0.01 CaCl2, pH 7.4

[2] = target: T1, HUMAN SPUTUM ELASTASE (Homo sapiens, UniProt P08246); assay: Elastase assay (MeO-Suc-Ala-Pro-Val-pNA); details: 200 μM peptide
T1 construct: HUMAN SPUTUM ELASTASE; purchased Elastin Products Company SE563; host or cells: human sputum (from the product name)
T1 sequence (P08246 30-267): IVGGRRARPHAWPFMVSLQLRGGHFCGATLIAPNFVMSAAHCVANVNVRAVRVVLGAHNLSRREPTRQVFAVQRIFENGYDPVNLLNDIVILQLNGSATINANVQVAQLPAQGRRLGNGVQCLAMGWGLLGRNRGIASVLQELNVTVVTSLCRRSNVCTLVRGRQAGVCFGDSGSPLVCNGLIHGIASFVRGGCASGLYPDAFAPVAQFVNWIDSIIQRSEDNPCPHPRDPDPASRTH
Experimental: Enzyme used is "HUMAN SPUTUM ELASTASE®" which is an enzyme which is the target protease for α1 antitrypsin from Elastin Products Company, Catalog No. SE563, lot 85071, 875 units/mg as determined by supplier with N-Suc-Ala-Ala-Ala-pNA; prepared at 0.2 mg/mL in 0.1M Tris·HCl, pH 8.8 at 37 degrees C. An amount of enzyme is used to give approximately 0.1 change in Absorbance/min; which in this assay was 1 μg.
The substrate is MeO-Suc-Ala-Pro-Val-pNA, Sigma Catalog No. M-4765. About 50 mg of the substrate is dissolved in 1 ml of 1-methyl-2-pyrrolidinone and diluted to 33 mls. with 0.1M Tris-HCl, pH 7.5, containing 0.5M NaCl, and 0.01 wt % sodium azide.
Peptide solutions are prepared at 500 μM, using 1.5% of the final volume of DMSO first and diluting with distilled water (DW) or 0.1M Tris.HCl, pH 8.8 at 37 degrees C. [formula]

[3] = target: T2, Cathepsin G (Homo sapiens, UniProt P08311); assay: Cathepsin G assay (Suc-Ala-Ala-Pro-Phe-pNA, 410 nm); details: 200 μM peptide (head of Table IX)
T2 construct: purchased Elastin Products Company (EPC) SG-45
T2 sequence (P08311 21-255): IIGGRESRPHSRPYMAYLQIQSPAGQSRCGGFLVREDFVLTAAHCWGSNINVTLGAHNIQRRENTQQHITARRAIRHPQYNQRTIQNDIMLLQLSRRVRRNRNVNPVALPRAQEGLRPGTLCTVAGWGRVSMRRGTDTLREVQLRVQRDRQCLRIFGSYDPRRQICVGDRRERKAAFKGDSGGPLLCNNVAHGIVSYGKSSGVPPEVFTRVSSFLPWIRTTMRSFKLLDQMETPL
Experimental: Reference: Elastin Products Company (EPC) technical data sheet, cathepsin G, No. SG-45.
Method: Spectrophotometric rate determination
A) Buffer; 0.1M Tris, pH 7.5 at 25° C.
B) Substrate; 60 mM Suc-Ala-Ala-Pro-Phe-pNA obtained from Sigma Chemical Company. Solution prepared by dissolving 50 mg substrate in 1.3 ml of 1-methyl-2-pyrrolidinone. Stored at 5° C.
C) Peptide Inhibitors; 200 μM HCl salt. Depending on peptide solubility, dissolved in buffer or DMSO and then buffer added for a final concentration of 10% DMSO.
D) Enzyme; Cathepsin G, EPC SG-45, lot 85117 used for all assays, 0.0077 mg protein per mg solid determined by supplier by Bradford method. Enzyme was dissolved in buffer at a concentration of approx. 5 mg/ml solid. Solution stored on ice, used within 2 hours.
Pipetted the following into semi-micro quartz cuvettes: 0.3 ml buffer, 0.15 ml peptide solution and 0.5 ml of substrate solution. Equilibrate for 5 min. at 25° C., then add 0.05 ml of enzyme solution and monitor the release of pNA spectrophotometrically at 410 nm for at least 3 minutes. The controls contain either 0.45 ml of buffer or 20% DMSO in buffer (for a final concentration of 10% DMSO).
The rate (O.D./min) is obtained as an average over 3 minutes. [formula]

[4] = target: T3, tPA (Homo sapiens, UniProt P00750); assay: Tissue plasminogen activator (tPA) assay (S2288); details: for inhibition at 10 µM: 10 μM peptide
T3 construct: Enzyme tPA, 2 chain activity standard; purchased American Diagnostica, Inc. 116
Experimental: Substrate H-D-Ile-Pro-Arg-pNA·2HCl (S2288, Kabi), 10 mM in deionized water; may be frozen for future use.
Buffer 50 mM Tris·HCl, pH 7.4 containing 0.01% Tween 80.
Inhibitor […] in deionized water.
Enzyme tPA, 2 chain activity standard (Catalog #116, American Diagnostica, Inc.); stock solution=10 μL of original solution per mL in buffer.
Mix 200 μL of buffer, 200 μL of deionized water (control) or inhibitor solution and 40 μL of substrate solution. Incubate for 2 min. at 37° C., add 40 μL of enzyme, mix, and measure rate spectrophotometrically at 405 nm for about 5 min. Inhibition (%) is calculated in the same manner as in previous assays.

[5] = target: T4, Factor D (Homo sapiens, UniProt P00746); assay: Factor D assay by inhibition of fluid phase Factor B activation; details: Table X; μM concentration at which protease was inhibited 50%; read-out: IC50 D
T4 construct: prepared from pooled human plasma; from tissue; host or cells: pooled human plasma
Experimental: (§1) Highly purified C3, C4, Factor D, Factor B, and C1s were prepared from pooled human plasma. Factors B and C4 were radiolabeled by periodate oxidation of sialic acid residues, followed by reduction with tritiated sodium borohydride. In a representative experiment, a solution of 1.2 mg of factor B in 1.8 ml of PBS was treated with 70 μl of 0.1M NaIO4. After 10 min incubation on ice, excess reagent was removed by filtration over "SEPHADEX®" which is a matrix for gel chromatography (1.0 cm×20 cm). To the protein pool was added 60 μl of NaB[^3 H]4 solution and incubated for 30 min on ice. Labeled protein was separated from excess reagent by desalting or dialysis. Human C4 was radiolabeled in the same manner. Radiolabeled proteins were stored at -70° C. in PBS. The specific radioactivity of ^3 H factor B was about 10,000 CPM/μg and that of ^3 H-C4 was 5,000 CPM/μg.
The effect of the peptides on Factor D-dependent cleavage of factor B was studied by incubating 3.5 μg of Factor B, 1.5 μg of C3(H2 O) and 0.2 μl of Factor D at 37° C. for 60 min in Mg-PBS containing different concentrations of inhibitor. Uncleaved Factor B and its fragments, Ba and Bb, were first separated by SDS-PAGE and analyzed as described above. The percent cleavage of the reaction was calculated as follows: [formula]
B=radioactivity (CPM) of uncleaved factor B
Bb=radioactivity (CPM) of fragment Bb
Ba=radioactivity (CPM) of fragment Ba
(§2) Electrophoresis was carried out under reducing conditions in the Laemmli system using slab gel of 8% polyacrylamide. The gels were stained and destained (Fairbanks et al. Biochemistry (1971) 10:2606).
(§3) The percent inhibition of the reaction was calculated according to the following relationship: [formula]
(§4) A: % cleavage without inhibitor
(§5) B: % cleavage with inhibitor
(§6) The concentration inducing 50% inhibition was obtained by plotting the percent inhibition on a probability graph (National Blank Book Co., No. 12-083) on the ordinate and the log of the inhibitor concentration on the abscissa. From this graph, a 50% inhibition concentration IC50 was obtained and this value was employed to express the activity.

[6] = target: T5, C1s (Homo sapiens, UniProt P09871); assay: C1s assay by inhibition of fluid phase C4 activation; details: Table X; μM concentration at which protease was inhibited 50%; read-out: IC50 C1S
T5 construct: prepared from pooled human plasma; from tissue; host or cells: pooled human plasma
T5 sequence (P09871 16-688): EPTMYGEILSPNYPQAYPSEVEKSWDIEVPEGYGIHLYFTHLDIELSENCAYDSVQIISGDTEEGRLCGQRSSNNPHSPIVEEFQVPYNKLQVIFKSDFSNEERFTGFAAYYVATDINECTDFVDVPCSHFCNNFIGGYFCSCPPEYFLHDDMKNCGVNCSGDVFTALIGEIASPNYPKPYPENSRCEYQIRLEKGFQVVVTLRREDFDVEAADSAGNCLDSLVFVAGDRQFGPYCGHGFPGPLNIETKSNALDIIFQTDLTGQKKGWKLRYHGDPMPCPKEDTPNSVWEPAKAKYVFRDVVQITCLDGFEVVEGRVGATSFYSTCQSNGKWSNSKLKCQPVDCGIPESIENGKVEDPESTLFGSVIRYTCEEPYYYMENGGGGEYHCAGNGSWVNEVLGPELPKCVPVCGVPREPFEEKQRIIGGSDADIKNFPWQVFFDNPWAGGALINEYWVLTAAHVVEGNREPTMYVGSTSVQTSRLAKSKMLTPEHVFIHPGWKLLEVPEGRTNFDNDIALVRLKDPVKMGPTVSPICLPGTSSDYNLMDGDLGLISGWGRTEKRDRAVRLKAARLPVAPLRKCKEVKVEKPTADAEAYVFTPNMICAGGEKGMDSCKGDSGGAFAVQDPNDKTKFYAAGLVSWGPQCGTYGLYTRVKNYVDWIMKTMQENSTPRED
Experimental: as §1
The cleavage of C4 was studied by incubating 10 μg of tritiated C4 with 3-5 ng of C1s at 37° C. for 30 min in 100 μl of PBS (pH 7.10) containing different concentrations of inhibitor. The reaction was stopped by the addition of 2-mercaptoethanol. The extent of cleavage was analyzed by SDS-polyacrylamide gel electrophoresis. The stained bands corresponding to C4α and C4α' were cut out and sliced. The radioactivity of the fragments was measured by liquid scintillation counting. The percent cleavage of the reaction was calculated as follows: [formula]
as §2, §3, §4, §5, §6

T3 sequence (P00750 311-562 limits assumed): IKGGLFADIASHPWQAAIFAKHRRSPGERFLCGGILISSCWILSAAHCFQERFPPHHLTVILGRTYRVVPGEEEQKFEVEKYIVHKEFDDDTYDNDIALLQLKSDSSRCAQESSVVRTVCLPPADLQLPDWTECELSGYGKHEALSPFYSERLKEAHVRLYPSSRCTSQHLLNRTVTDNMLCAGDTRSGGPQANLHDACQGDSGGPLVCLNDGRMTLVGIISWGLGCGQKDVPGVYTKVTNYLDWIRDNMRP
T3 sequence (P00750 36-310 partner limits assumed): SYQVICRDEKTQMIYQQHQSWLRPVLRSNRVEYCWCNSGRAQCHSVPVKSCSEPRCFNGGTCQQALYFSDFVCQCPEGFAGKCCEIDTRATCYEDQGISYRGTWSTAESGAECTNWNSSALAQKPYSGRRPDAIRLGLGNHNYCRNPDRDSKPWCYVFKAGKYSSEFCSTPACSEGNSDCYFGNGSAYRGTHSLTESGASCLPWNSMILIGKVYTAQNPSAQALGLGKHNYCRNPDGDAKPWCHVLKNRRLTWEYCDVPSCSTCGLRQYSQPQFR
T4 sequence (P00746 26-253): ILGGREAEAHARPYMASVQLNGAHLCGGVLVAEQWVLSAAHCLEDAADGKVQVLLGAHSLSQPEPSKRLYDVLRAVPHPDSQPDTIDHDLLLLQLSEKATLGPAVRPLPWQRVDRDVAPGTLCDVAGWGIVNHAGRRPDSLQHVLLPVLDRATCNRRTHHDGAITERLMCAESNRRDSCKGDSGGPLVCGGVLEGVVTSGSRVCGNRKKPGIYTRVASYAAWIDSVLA

Sequence	Elastase Inhibition [2]	Cathepsin G Inhibition [3]	other results
AGRSLNPNRTIVRFNRPFLLII [Peptide 11]	–	–	inhibition at 40 µM [1]: 81%; inhibition at 200 µM [2]: 15%; inhibition at 200 µM [3]: 40%
FLEAIPMSIPPEVKFNKPFVFLI [Peptide 4]	–	–	inhibition at 200 µM [2]: 70%; inhibition at 200 µM [3]: 14%
FLEAIPMSIPPEVKFNKPFVFLLIEQNTKSPLFLGKVVNPTQK [Peptide 24]	26%	0%	–
FLEAIPMSIPPRVTFKANRPFLVFIREVPLNTIIFLGRVANP [Peptide 28]	0%	16%	–
FLEAIPMSIPPTFKANRPFLVFI [Peptide 8]	77%	44%	Thrombin inhibition [1]: 30%
IAGRSLNPNIVRFNRPFLLIIVPTDTQNIFFLSKVTNPSKPR [Peptide 31]	0%	54%	–
IAGRSLNPNPPEVKFKNPFVFLI [Peptide 5]	0%	0%	–
IAGRSLNPNRVTFKANRPFCVFIREVPLNTIIFLGCVANPAVK (disulfide 20-36) [Peptide 45]	–	–	inhibition at 20 µM ([4]; 20 μM peptide): 69%
IDGRIVEGSRVTFKANRPFLVFI [Peptide 18]	–	–	IC50 [5]: 43 µM; IC50 [6]: 40 µM
LQRALEILRVTFKANRPFLVFI [Peptide 14]	–	–	IC50 [5]: 8 µM; IC50 [6]: 9 µM
PFLVFILPNIFLGRVAN [Peptide 43]	–	–	inhibition at 10 µM [4]: 7%
RPFLVFILPGIFLGRVANP [Peptide 38]	–	–	inhibition at 10 µM [4]: 59%
RPFLVFILPNIFLGRVAN [Peptide 42]	–	–	inhibition at 10 µM [4]: 44%
RPFLVFILPNIFLGRVANP [Peptide 39]	–	–	inhibition at 10 µM [4]: 55%
RPFLVFILPNIFLRVANP [Peptide 44]	–	–	inhibition at 10 µM [4]: 55%
RPFLVFIRPGDIFLGRVANP [Peptide 40]	–	–	inhibition at 10 µM [4]: 39%
RPFLVFIRPNDFLGRVANP [Peptide 41]	–	–	inhibition at 10 µM [4]: 8%
RPFLVFLPNILRVANP [Peptide 46]	–	–	inhibition at 10 µM [4]: 0%
TLLSALVETRTIVKFNKPFVFLLIEQNTKSPLFLGKVVNPTQK [Peptide 26]	–	0%	–
TLLSALVETRTIVRFNRPFLLIIVPTDTQNIFFLSKVTNPSKPR [Peptide 30]	–	38%	–

Second part, led by results:

Elastase Inhibition [2]	Cathepsin G Inhibition [3]	Sequence	other results
100%	–	FLEAIPMSIPPIVRFNRPFLLII [Peptide 19]	–
0%	0%	FLEAIPMSIPPIVRFNRPFLLIIVPTDTQNIFFLSKVTNPSKPR [Peptide 32]	–
0%	51%	FLEAIPMSIRTIVRFNRPFLLII [Peptide 12]	–
0%	35%	IAGRSLNPNRVTLRYNKPFILVLFETPGNSLVFLGRISNPATK [Peptide 33]	–
0%	35%	IAGRSLNPNRVTVKFNKPFVFLLIEQNTKSPLFLGKVVNPTQK [Peptide 25]	–
17%	0%	TLLSALVETPPEVKFKNPFVFLI [Peptide 6]	–
0%	65%	TLLSALVETRTIVRFNRPFLLII [Peptide 10]	–
–	41%	TLLSALVETRVTFKANRPFLVFI [Peptide 9]	Thrombin inhibition [1]: 32%
